# Source: patent US9125352B2, “Method for maturing and synchronizing conifer somatic embryos” (SweTree Technologies AB, priority 2010, dated 2015)
# Columns and labels:
# somatic embryo cultures = experiment: Embryo culture in medium with plasmolytic or near plasmolytic concentration of sugar alcohol (general findings); type: cell-based; settings: for effect on maturation in the embryo cultures: plasmolytic or near plasmolytic concentration
# From the text: The invention is based on a serendipitous discovery. Gene transfer to spruce somatic embryos using a particle gun was experimented with, using a special medium originally designed for use with gene transfer for embryogenic cultures, containing 0.25, M myo-inositol. The resulting plasmolysis reduces damage during penetration by the gold particles, since it relaxes the tension in the cell membranes and minimizes tearing. By mistake, the somatic embryos were left in this medium for 12, days instead of returning them to the normal proliferation medium as intended. […] Consequently, the cells are first plasmolyzed and then gradually deplasmolyzed.
# [1] = system: somatic embryos of Norway spruce, cell line 06:28:05; experiment: Mature embryos left 12 days in maturation medium with 0.25 M inositol after particle bombardment (Example 1); type: cell-based
# From the text: The aim of the experiment was to infect somatic embryos of Norway spruce with a virus using a particle gun according to a routine method (Clapham et al. 2000: Scand. J. For. Res. 15:151-160) and derive plants containing the virus. The original standard bombardment procedure was developed for the transformation of embryogenic cultures consisting of immature embryos (i.e. proembryonic masses or PEMs). In the original protocol, from one to two hours before bombardment with gold particles coated with DNA, the cells are temporarily plasmolyzed with 0.25 M myo-inositol in proliferation medium (Table 4) to reduce damage from the penetration of the gold particles.
# In the present experiment, mature embryos instead of PEMs were bombarded. The cultures of cell line 06:28:05, had been matured on standard DKM medium containing ABA for 50, days before bombardment. The embryos were exposed to medium containing 0.25, M inositol for 1-2, hours before bombardment. After bombardment the cells were unintentionally left in maturation medium containing 0.25, M inositol for 12, days, then returned to standard DKM medium containing ABA. […] About 50 plantlets with more or less well developed roots were planted out at once in pots containing mineral wool, which is not usually possible; fifteen of these survived and continued to grow. Sixty-two additional plantlets were grown aseptically on solid standard germination medium (quarter strength Schenk and Hildebrandt) to develop the root system for about 2, months; 51, of these grew well enough to plant out in pots of mineral wool. At least 48, of the plants were growing vigorously a month later. The appearance of these somatic embryo-derived plants encouraged the inventors to believe that mature embryos exposed to the relatively high concentration of inositol in the present experiment were of unusually high quality and ready for germination, without partial drying under high humidity for 2-3, weeks as in the standard procedure.
# [2] = system: embryogenic callus of Norway spruce, cell-lines 61:21, 19:01 and 28:05; experiment: Inositol concentration series on maturation medium, embryo quality measurements (Example 4); type: cell-based; settings: for root development, indicating premature germination: FIG. 2a-c
# From the text: To investigate how various inositol concentrations synchronize embryo development and affect the quality of the developing embryos, three cell-lines of embryogenic callus of Norway spruce, cell-lines 61:21, 19:01, and 28:05, were exposed to 1, week on prematuration medium, and matured for 40, days, 36, days or 33, days, respectively on maturation medium with subculturing every two weeks. Small clumps about 1, cm diameter of maturing embryos were then subcultured on maturation medium containing 0.0005, M (here denoted 0, M), 0.06, M, 0.1, M, 0.2, M, 0.25, M or […] inositol.
# Twenty individual mature embryos or small plantlets were picked randomly from the plates and the following measurements were taken, for quality measurement, see FIG. 1: width of hypocotyls (1), width across the cotyledons one third of the way down of the hypocotyls (2), width across the cotyledons two third of the way down of the hypocotyls (3) and length of the hypocotyls (4), length of root (5).
# [3] = system: embryogenic callus of Scots pine, Pinus sylvestris, cell-line 42:6:3; experiment: Inositol concentration series on DCR maturation medium and germination on DKM (Example 6); type: cell-based
# From the text: In order to verify the broad use of the newly invented method, additional conifers have been tested by adapting the methods of Examples 4, and 5. Embryogenic callus of Scots pine, Pinus sylvestris, cell-line 42:6:3, was proliferated on DCR medium (Burg et al. 2007:, J. Exp. Bot. 58: 687-698) containing 2,4-D and BA at the same concentrations as described for spruce. The cells were taken through the early maturation step on DCR medium containing 7.5% polyethylene glycol 400, 3% maltose (replacing sucrose) and 16, mg per liter abscisic acid (Burg et al. 2007:, J. Exp. Bot. 58: 687-698). Samples of cells were then exposed to the same medium containing inositol at concentrations of 0.0005, M 0.1, M, 0.2, M, 0.25, M, 0.3, M or 0.5 M for four weeks. […] Somatic embryogenesis is more problematic in pine than in spruce, so that experiments with mature embryos were on a small scale.
# [4] = system: Mexican Yellow Pine, Pinus oocarpa, line 2; experiment: Corresponding inositol experiments with Mexican Yellow Pine (Example 6); type: cell-based; settings: inositol series as for Scots pine
# [5] = system: embryogenic cells, cell-line 06:28:05; experiment: Comparison of inositol with other sugar alcohols and with sucrose on solid DKM+ABA maturation medium (Example 3); type: cell-based, Norway spruce; settings: for Plates with 10 high quality embryos: addition to standard medium: 0.25 M (or 0.125 M + 0.125 M), three plates of 1.0-1.5 g cells per treatment
# From the text: The action of 0.25, M inositol in improving somatic embryo quality is likely to be partly osmotic, partly nutritional, with cell signaling effects also involved. The inventors tested whether 0.25, M inositol could be replaced with 0.25, M of other sugar alcohols (mannitol and sorbitol) or 0.25, M extra sucrose by spreading 1.0, to 1.5, g fresh weight of embryogenic cells, cell-line 06:28:05, on each of six plates of solid DKM+ABA maturation medium for continued growth and development over four weeks, with one subculture after 2, weeks. The cells were then subcultured onto three plates each (1.0-1.5, g cells per plate) of medium containing in addition either a) 0.25, M inositol, or b) 0.125, M mannitol and 0.125, M sorbitol, or c) 0.25, M sucrose. Control cells continued on standard medium. After three weeks, embryos of good quality were transferred to germination medium, ten embryos per petri dish, as a rough quantitative estimate of quality.
# [6] = system: Norway spruce embryos, cell-lines 95:61:21 (61:21), 19:01 and 28:05; experiment: Germination (root length) on germination medium after inositol treatment, without partial drying (Example 5); type: cell-based
# Method: Then 15, embryos from each concentration of inositol were transferred to germination medium (same as the prematuration medium). The progress of germination was measured by root length after 11, days on germination medium. Germination was fastest for the embryos that had been treated with 0.25, M inositol FIG. 6a. The difference between the root lengths after treatment at the three highest concentrations compared with those at the three lowest concentrations was highly significant by t-test (P<0.001). The experiment was repeated with another replicate of cell-line 61:21. This time, the inositol treatment was for 25, days, the small clumps of embryos were transferred to prematuration medium for 9, days, then 10, embryos were individually planted on prematuration medium and root length was measured 29, days later. […] The length of inositol treatment was 16, days for both lines. Root length was measured 12, or 14, days according to cell-line after transfer of 20, embryos for each concentration of inositol to prematuration medium for germination. For all four experiments of Example 5, root length after treatments of 0.2, to 0.3 M inositol was compared to root length after treatments with 0, to 0.1, M inositol in a paired t-test. […] The inventors have compared on a small scale the germination of inositol-treated embryos with partially dried embryos that have been matured by standard procedures.
# [7] = system: embryogenic cultures of cell-line 06:28:05; experiment: Maturation in temporary-immersion bioreactors, DKM+ABA then DKM+0.25 M inositol+ABA, then germination (Example 2); type: cell-based, Norway spruce
# Method: Several experiments were performed to confirm the observations of Example 1 and to refine the novel culture method. Subsequent experiments confirm that the process of bombardment itself has no effect additional to the inclusion of 0.25, M myo-inositol in the medium. In the present experiment, embryogenic cultures of the same cell-line 06:28:05, were matured in bioreactors that enabled periodic temporary submersion in liquid DKM containing ABA. In two bioreactors, the embryos were matured for 38, days in DKM+ABA, then for 25 days in DKM+0.25, M inositol+ABA. In two control bioreactors, the cultures were maintained continuously in DKM+ABA, without the inositol treatment.
# Embryos from the experimental and control reactors were placed on solid germination media in petri dishes mainly to optimize germination media. Plantlet quality was assessed after 6, days' germination as ‘bent’ or ‘not bent’. Whereas only 12, out of 134, (9%) inositol-treated embryos developed into bent plantlets, 50, out of 140, (36%) of the control embryos developed into bent plantlets. The difference was highly significant (P<0.0001) by Fisher's contingency test.
# [8] = system: embryos of cell-line 28:05; experiment: Growth of germinated inositol-treated embryos in stonewool pots for three months (Example 5); type: in vivo, Norway spruce
# Method: Embryos of cell-line 28:05, treated with 0.25, M inositol and germinated in vitro as described above were grown on in stonewool in plastic pots 8×8×10, cm with standard commercial mineral nutrition in a growth chamber in continuous light at 20° C. for three months.
# [9] = high concentrations of inositol
# [10] = 0.25 M inositol, after 6 days' germination, out of 134 embryos
smiles,measurement,setting,value
OC[C@@H](O)[C@@H](O)[C@H](O)[C@H](O)CO [mannitol],effect on maturation in the embryo cultures,somatic embryo cultures,induce synchronous maturation
"O[C@H]1[C@H](O)[C@@H](O)[C@H](O)[C@@H](O)[C@H]1O [inositol, cis-1,2,3,5-trans-4,6-cyclohexanehexol]",embryo appearance compared with embryos from the standard protocol,[1]; 0.25 M inositol,strikingly more uniform and broader in relation to length
same,plantlets that survived and continued to grow after being planted out at once in pots containing mineral wool,"[1]; 0.25 M inositol 12 days, of about 50 plantlets planted out",fifteen
same,plantlets that grew well enough to plant out in pots of mineral wool,"[1]; 0.25 M inositol 12 days, of sixty-two plantlets grown about 2 months on solid germination medium",51
same,plants growing vigorously a month later,"[1]; 0.25 M inositol 12 days, of the 51 planted out in mineral wool",At least 48
same,germination after return to standard DKM medium containing ABA,"[1]; 0.25 M inositol for 12 days, observed after 8 days on standard DKM+ABA",many embryos had germinated and formed healthy well developed small plantlets
same,need for partial drying before germination,somatic embryo cultures; [9],require no further partial drying before germination
same,quality of mature embryos formed,somatic embryo cultures; high concentrations of inositol (myo-inositol) in the culture media,more robust mature embryos with improved rooting capabilities
same,effect on maturation in the embryo cultures,somatic embryo cultures,induce synchronous maturation
same,effect on embryo development (summary),[2]; 0.2-0.3 M inositol,synchronized development of the embryos by inhibiting germination but not embryo development
same,"root development, indicating premature germination",[2]; 0.2-0.3 M inositol,inhibited almost completely
same,ratio of width one third down the hypocotyl (2) to width two thirds down the hypocotyl (3),"[2]; 0.2-0.3 M inositol, FIG. 5a-c",just above unity
same,coefficient of variation of width across the cotyledons (minimum),"[2]; cell-line 28:05, 0.25 M inositol, FIG. 4",35%
same,inositol concentration at which the coefficient of variation of hypocotyl length is at a minimum (synchrony maximal),"[2]; cell-line 61:21, FIG. 3",0.25 M
same,"root development, indicating premature germination",[2]; low concentrations of inositol,present
same,variation in hypocotyl length,"[2]; the other two cell-lines (19:01, 28:05), higher concentrations of inositol",reduced markedly
same,"signs of premature germination (hypocotyl extension, greening of cotyledons)","[3]; 0.0005 M and 0.1 M inositol, four weeks",some of the embryos showed characteristic signs of premature germination
same,maturation and precocious germination,"[3]; 0.2-0.3 M inositol, four weeks",precocious germination was inhibited
same,"proportion of embryos that developed healthy roots on the germination medium, compared with 0.0005 M",[3]; 0.25 M inositol,higher proportion
same,signs of stress (red colour under the cotyledons) within two days of germination on DKM,[3]; 0.25 M inositol,no such signs of stress
same,condition of embryos compared with those exposed to 0.0005 M inositol,"[3]; 0.25 M inositol, groups of ten embryos germinated on DKM",in better condition
same,effect on further maturation of the embryos,[3]; 0.5 M inositol,inhibited further maturation of the embryos
same,outcome compared with the Scots pine experiments,[4],showed the same tendencies
same,embryos of good quality relative to mannitol plus sorbitol,[5]; 0.25 M inositol vs 0.125 M mannitol plus 0.125 M sorbitol,about twice
same,Plates with 10 high quality embryos,[5]; three weeks,6
same,root length after 0.2 to 0.3 M inositol compared with 0 to 0.1 M inositol,"[6]; all four experiments of Example 5, paired t-test, P<0.03",significantly greater
same,"germination, measured by root length after 11 days on germination medium","[6]; cell-line 95:61:21, 0.25 M inositol for 17 days, 15 embryos, FIG. 6a",fastest
same,subsequent root growth on germination medium,"[6]; cell-lines 19:01 and 28:05, 16 days inositol, root length at 12 or 14 days, FIGS. 6c, 6d",advantages of treatment with high concentrations of inositol for subsequent root growth
same,"rooting, root length measured 29 days after planting on prematuration medium","[6]; replicate of cell-line 61:21, 0.25 M inositol for 25 days, 10 embryos, FIG. 6b",rooting fastest
same,germination compared with partially dried embryos matured by standard procedures,[6]; small scale comparison,shoots grow faster and more vigorously
same,embryos that developed into bent plantlets (number),[7]; [10],12
same,embryos that developed into bent plantlets (percent),[7]; [10],9%
same,embryo appearance compared with controls,"[7]; 38 days DKM+ABA then 25 days DKM+0.25 M inositol+ABA, bioreactors","strikingly more uniform, and broader in relation to length"
same,yield of high-quality embryos relative to untreated controls,"[7]; bioreactor experiment, 0.25 M inositol",six to eight
same,condition of plants after three months in stonewool,"[8]; 0.25 M inositol, growth chamber, continuous light, 20° C.",vigorous and healthy
same,longer term effects on subsequent growth,[8]; [9],no unexpected longer term effects on subsequent growth
"OC[C@H]1O[C@@](CO)(O[C@H]2O[C@H](CO)[C@@H](O)[C@H](O)[C@H]2O)[C@@H](O)[C@@H]1O [sucrose, reference compound]",effect on embryo quality,"[5]; 0.25 M addition to DKM+ABA, three weeks",clearly detrimental effect
same,Plates with 10 high quality embryos,[5]; three weeks,0
OC[C@@H](O)[C@@H](O)[C@H](O)[C@@H](O)CO [sorbitol],effect on maturation in the embryo cultures,somatic embryo cultures,induce synchronous maturation
